Laboratory results as given in US20100312073A1, “METHOD OF […] […]” (priority 2008, published 2010).
Read-outs that look alike come from different tables or passages of the source.

Tested on: DNIC efficiency (diffuse noxious inhibitory control)
Conditions: 60 mg once a day for one week, healthy volunteers
From the text: According to an exemplary testing procedure, the DNIC can be assessed as the difference of pain ratings to ‘test stimulus’ applied before and during the immersion of the contralateral hand into hot water bath (conditioning stimulus) as elaborated infra. Exemplary test stimulus of a 30 seconds period with contact heat, such as 30×30 mm^2 thermode TSA-2001 available from Medoc, can be delivered for instance on the non-dominant forearm at the individually-predetermined temperature that evoked pain intensity of 60 on a 0-100 NPS (more details in Granot et al., 2006). The stimulus temperature can be raised by 2° C./sec from 32° C. to the destination temperature. Fifteen minutes after the completion the first pre-immersion test, the patient is asked to immerse his/her dominant hand for 1′ into the water bath of 46.5° C. (Neto Cooling Bath CBN 8-30, Allerod, Denemark), while second application of the ‘test stimulus’ is repeated during last 30 seconds of immersion. […]
DNIC paradigm, tested at baseline and after each of the treatments, consisted of administration of two painful stimuli, a test-pain delivered by contact heat, and a ‘conditioning’ pain induced by hot water immersion of the other hand. The DNIC efficiency was calculated as the difference between pain perceptions induced by the test-pain when given alone, and when given concomitantly with the conditioning one.

CNCC[C@H](Oc1cccc2ccccc12)c1cccs1 [Duloxetine]
Duloxetine treatment DNIC score (high pre-treatment DNIC group (pre-treatment DNIC score 32.50), NS vs. pre-treatment): 29.26
Duloxetine treatment DNIC score (low pre-treatment DNIC group (pre-treatment DNIC score 0.15), P<0.05 vs. pre-treatment (Tukey)): 19.35
